Values of other authors in US20160249623A1, “METHODS FOR DISPENSING SALT-FREE HYPOCHLOROUS ACID FOR HAND-SANITIZING” (priority 2015, published 2016).

How the values were obtained:
[1] = test system: HIV (Human Immunodeficiency Virus); conditions: the longest kill-time
[2] = test system: all viruses, bacteria, mold and spores

**Q.** With `OCl` [HOCI, hypochlorous acid] as the molecule, how does the kill-time [1] read?
**A.** less than 1 minute

**Q.** And the kill-time [2]?
**A.** within seconds
